Measured values taken from patent publication US20210255193A1, “LYSINE REACTIVE PROBES AND USES THEREOF” (The Scripps Research Institute, priority 2017, published 2021).
Each block holds one compound with its values, some of them ahead of it.

What was measured:
[1] = molecular target: T1, EHD1 EH domain-containing protein 1 (Homo sapiens, UniProt Q9H4M9); assay: competitive isoTOP-ABPP; type: binding
T1 construct: endogenous in cells; host or cells: MDA-MB-231 (soluble fraction of lysate)
T1 sequence (Q9H4M9 1-534): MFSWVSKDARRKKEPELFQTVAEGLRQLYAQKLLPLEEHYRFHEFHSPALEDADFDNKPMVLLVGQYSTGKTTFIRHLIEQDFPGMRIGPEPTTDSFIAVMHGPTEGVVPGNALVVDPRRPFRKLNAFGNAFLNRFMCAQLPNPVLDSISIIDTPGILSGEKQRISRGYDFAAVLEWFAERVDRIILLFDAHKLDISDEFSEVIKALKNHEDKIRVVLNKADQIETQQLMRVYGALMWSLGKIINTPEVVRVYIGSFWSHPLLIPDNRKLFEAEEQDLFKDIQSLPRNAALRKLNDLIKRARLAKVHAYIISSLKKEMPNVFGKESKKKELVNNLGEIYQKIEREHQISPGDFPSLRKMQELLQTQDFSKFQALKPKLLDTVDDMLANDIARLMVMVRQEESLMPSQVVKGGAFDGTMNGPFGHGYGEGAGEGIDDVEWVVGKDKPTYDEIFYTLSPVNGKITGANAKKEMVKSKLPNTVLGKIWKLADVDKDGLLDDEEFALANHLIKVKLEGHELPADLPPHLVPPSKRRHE
Method in brief: (§1)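 Readout: isotopic light/heavy MS1 peak-area ratio (R, DMSO heavy over compound light), median across peptides sharing a modified lysine. Lysate received fragment (activated esters 50 μM, guanidinylating agents 100 μM final) or DMSO, then 0.1 mM STP-alkyne probe for 1 h at ambient temperature.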

[2] = molecular target: T2, MAP4K5 Mitogen-activated protein kinase kinase kinase kinase 5 (Homo sapiens, UniProt Q9Y4K4); assay: competitive isoTOP-ABPP; type: binding; conditions: 50 uM, 231 sol, in vitro
T2 construct: endogenous in cells; host or cells: MDA-MB-231 (soluble fraction of lysate)
T2 sequence (Q9Y4K4 whole entry): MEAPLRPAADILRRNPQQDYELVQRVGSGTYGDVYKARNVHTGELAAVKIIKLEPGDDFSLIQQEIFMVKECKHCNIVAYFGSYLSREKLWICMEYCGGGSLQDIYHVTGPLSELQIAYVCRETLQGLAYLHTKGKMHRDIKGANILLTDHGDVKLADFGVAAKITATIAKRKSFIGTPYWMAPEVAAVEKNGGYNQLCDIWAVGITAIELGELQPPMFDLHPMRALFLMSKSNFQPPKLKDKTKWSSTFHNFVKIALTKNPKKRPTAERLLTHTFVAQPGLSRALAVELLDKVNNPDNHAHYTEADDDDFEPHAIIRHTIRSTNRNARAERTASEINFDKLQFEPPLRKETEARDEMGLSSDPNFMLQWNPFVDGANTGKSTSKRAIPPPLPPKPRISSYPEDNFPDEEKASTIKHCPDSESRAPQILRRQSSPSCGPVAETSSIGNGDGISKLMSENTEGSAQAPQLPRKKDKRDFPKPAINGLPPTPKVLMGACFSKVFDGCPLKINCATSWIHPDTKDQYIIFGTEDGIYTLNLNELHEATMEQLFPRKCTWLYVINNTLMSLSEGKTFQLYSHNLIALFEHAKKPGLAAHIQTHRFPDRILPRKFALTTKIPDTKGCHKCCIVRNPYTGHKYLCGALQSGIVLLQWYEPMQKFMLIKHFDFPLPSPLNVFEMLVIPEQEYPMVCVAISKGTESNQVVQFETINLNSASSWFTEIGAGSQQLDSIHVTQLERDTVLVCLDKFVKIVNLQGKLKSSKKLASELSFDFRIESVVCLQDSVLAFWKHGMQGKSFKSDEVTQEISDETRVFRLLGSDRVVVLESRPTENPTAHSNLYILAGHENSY
Method in brief: as §1

SMILES: O=C(Oc1ccc([N+](=O)[O-])cc1[N+](=O)[O-])C(c1ccccc1)c1ccccc1 [fragment 30, 2,4-Dinitrophenyl 2,2-diphenylacetate]
isoTOP-ABPP reactivity ratio at lysine Q9H4M9_K511 ([1]; 50 uM, 231 sol, in vitro): 0.9

SMILES: CC(=O)Oc1ccc([N+](=O)[O-])cc1[N+](=O)[O-] [fragment 43, 2,4-Dinitrophenyl acetate]
isoTOP-ABPP ratio (R) at liganded lysine Q9H4M9_K511 ([1]; 50 uM, in vitro, sol, 231): 20.0

R value (DMSO/fragment) for probe 1 labeling ([2]; Q9Y4K4_K49): 0.6
SMILES: O=C(Oc1c(F)c(F)c(F)c(F)c1F)c1cc(C(F)(F)F)cc(C(F)(F)F)c1 [fragment 21, Pentafluorophenyl 3,5-bis(trifluoromethyl)benzoate]

SMILES: Cn1cc(CC(=O)Oc2ccc([N+](=O)[O-])cc2[N+](=O)[O-])c2ccccc21 [fragment 32, 2,4-Dinitrophenyl 2-(1-methyl-1H-indol-3-yl)acetate]
isoTOP-ABPP reactivity ratio at lysine Q9Y4K4_K49 [2]: 5.3 | isoTOP-ABPP reactivity ratio at lysine Q9H4M9_K511 ([1]; 50 uM, 231 sol, in vitro): 1.2

SMILES: O=C(CCc1cn(-c2ccccc2)nc1-c1ccccc1)Oc1ccc([N+](=O)[O-])cc1[N+](=O)[O-] [fragment 29, 2,4-Dinitrophenyl 3-(1,3-diphenyl-1H-pyrazol-4-yl)propanoate]
isoTOP-ABPP reactivity ratio at lysine Q9Y4K4_K49 [2]: 1.8

isoTOP-ABPP ratio, lysine Q9H4M9_K511 ([1]; 50 uM_231_sol_in vitro): 20.0
SMILES: O=C(Oc1c(F)c(F)c(C(F)(F)F)c(F)c1F)c1cc(C(F)(F)F)cc(C(F)(F)F)c1 [fragment 47, 2,3,5,6-Tetrafluoro-4-(trifluoromethyl)phenyl 3,5-bis(trifluoromethyl)benzoate]

R value (DMSO/fragment) for probe 1 labeling ([1]; Q9H4M9_K511, 50 uM, 231 sol, in vitro): 0.8
SMILES: O=C(CCc1cn(-c2ccccc2)nc1-c1ccccc1)Oc1c(F)c(F)c(F)c(F)c1F [fragment 19, Pentafluorophenyl 3-(1,3-diphenyl-1H-pyrazol-4-yl)propanoate]
